The values below come from ChEMBL document CHEMBL1201862, “PubChem BioAssay data set” (2004).

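96-well plates; 48 h exposure; 5 concentrations. Endpoints by linear interpolation between flanking doses. Not reached: highest tested concentration assigned. Here, GI50 denotes the concentration required for 50% inhibition of growth.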 Active and inactive are the calls of the source. No stated cut-off is given here; in the data, active = GI50 up to about 1.1 µM and inactive = higher.

Some test systems named below: SR; OVCAR-8; Malme-3M; CAKI-1; M14; UACC-62; HCT-15; SNB-19; NCI-H460; OVCAR-3; ACHN; HT-29; TK-10; KM12; T47D; MCF7; DU-145; MDA-MB-435.
Assay in all cases: NCI tumour cell line growth inhibition, 48 h

For the compound `Nc1nc[n+](Cc2ccccc2)c2ncn(Cc3ccccc3)c12`, the GI50 in the assay with SR is 35.3 µM (inactive); with OVCAR-8, > 100 µM (inactive); in the assay on Malme-3M it was 84.3 µM (inactive); with CAKI-1 it was 54.3 µM (inactive); with M14 it was 23.7 µM (inactive); in the assay on UACC-62, 32.4 µM (inactive). Further, the GI50 with HCT-15 is over 100 µM; in the assay with SNB-19, > 100 µM (inactive); in the assay on NCI-H460, > 100 µM (inactive); in the assay with OVCAR-3 it was 38.6 µM (inactive); in the assay on ACHN it was > 100 µM (inactive); in the assay with HT-29, 31.6 µM (inactive). In addition, the GI50 with TK-10 is 28.4 µM (inactive); in the assay on KM12, 68.9 µM (inactive).

Take `CN(C)C(=O)C(F)(F)C(c1ccccc1)C1C(=O)N(C)C(=O)N(C)C1=O` (stereo not given): the GI50 with OVCAR-8 is > 100 µM (inactive); with CAKI-1, > 100 µM (inactive); in the assay on M14 it was > 100 µM (inactive); in the assay with T47D it was > 100 µM (inactive); in the assay with UACC-62 it was > 100 µM (inactive); with HCT-15, over 100 µM. Besides, the GI50 with SNB-19, in the assay with NCI-H460, in the assay with MCF7, in the assay with DU-145, with OVCAR-3 and in the assay on MDA-MB-435 was > 100 µM (inactive) each time. In addition, the GI50 in the assay on ACHN, in the assay with TK-10 and in the assay with KM12 was > 100 µM (inactive) throughout.

Take `CN1C(=O)C2(C=CC(O)CC2)c2ccccc21` (stereo not given): the GI50 in the assay on SR, in the assay with OVCAR-8, in the assay with CAKI-1, in the assay with M14, in the assay with T47D and in the assay on UACC-62 was > 100 µM (inactive) throughout. Moreover, the GI50 in the assay with HCT-15 is over 100 µM; in the assay with SNB-19 it was > 100 µM (inactive); with NCI-H460 it was > 100 µM (inactive); in the assay with MCF7, > 100 µM (inactive); in the assay on DU-145, > 100 µM (inactive); in the assay on OVCAR-3 it was > 100 µM (inactive). The GI50 in the assay with MDA-MB-435, with ACHN, in the assay with HT-29, in the assay with TK-10 and in the assay on KM12 was > 100 µM (inactive) throughout.

For the compound `C=CC1(CCC(Br)C(C)(C)Cl)CO1` (stereo not given), the GI50 is > 10 µM (inactive) in the assay on OVCAR-8; > 10 µM (inactive) with Malme-3M; > 10 µM (inactive) with CAKI-1; > 10 µM (inactive) with M14; > 10 µM (inactive) in the assay on T47D; over 10 µM with HCT-15. Besides, the GI50 in the assay on SNB-19, in the assay with NCI-H460, in the assay with MCF7, in the assay on DU-145, in the assay with OVCAR-3 and in the assay with MDA-MB-435 was > 10 µM (inactive) throughout. Besides, the GI50 in the assay on ACHN, with HT-29, in the assay with TK-10 and in the assay on KM12 was > 10 µM (inactive) in each case.

For `O=c1[nH]nc(-c2ccccc2)c(-c2ccccc2)c1-n1nc(-c2ccccc2)c2ccccc2c1=O`, the GI50 was 52.1 µM (inactive) with SR; 92 µM (inactive) with OVCAR-8; > 100 µM (inactive) with Malme-3M; > 100 µM (inactive) in the assay with CAKI-1; > 100 µM (inactive) with M14; > 100 µM (inactive) in the assay with UACC-62. The GI50 was 78 µM in the assay with HCT-15; 90.6 µM (inactive) in the assay on NCI-H460; 51.5 µM (inactive) with OVCAR-3; 50.8 µM (inactive) in the assay on ACHN; 68.5 µM (inactive) in the assay with HT-29; > 100 µM (inactive) in the assay on TK-10. For the same compound, the GI50 with KM12 was 65.8 µM (inactive).
